Reference: patent US8568814B2, “Lanthionine derivatives” (Ajinomoto Co., Inc., priority 2009, dated 2013)

Tests used:
human CaSR [1] = target: T1, human CaSR (Homo sapiens, UniProt P41180, E1011Q); test: Evaluation (1) and (2) of CaSR agonist activity (Ca2+ fluorescence in transfected 293E cells); format: cell-based; conditions: 293E cells transfected with hCaSR/pcDNA3.1; Calcium 4/5 Assay Kit; methods (1) and (2)
T1 construct: expressed in transfected cells; host or cells: 293E cells (EBNA1-expression HEK293 cells, ATCC No. CRL-10852), transient transfection of hCaSR/pcDNA3.1
T1 sequence (P41180 20-1078 E1011Q): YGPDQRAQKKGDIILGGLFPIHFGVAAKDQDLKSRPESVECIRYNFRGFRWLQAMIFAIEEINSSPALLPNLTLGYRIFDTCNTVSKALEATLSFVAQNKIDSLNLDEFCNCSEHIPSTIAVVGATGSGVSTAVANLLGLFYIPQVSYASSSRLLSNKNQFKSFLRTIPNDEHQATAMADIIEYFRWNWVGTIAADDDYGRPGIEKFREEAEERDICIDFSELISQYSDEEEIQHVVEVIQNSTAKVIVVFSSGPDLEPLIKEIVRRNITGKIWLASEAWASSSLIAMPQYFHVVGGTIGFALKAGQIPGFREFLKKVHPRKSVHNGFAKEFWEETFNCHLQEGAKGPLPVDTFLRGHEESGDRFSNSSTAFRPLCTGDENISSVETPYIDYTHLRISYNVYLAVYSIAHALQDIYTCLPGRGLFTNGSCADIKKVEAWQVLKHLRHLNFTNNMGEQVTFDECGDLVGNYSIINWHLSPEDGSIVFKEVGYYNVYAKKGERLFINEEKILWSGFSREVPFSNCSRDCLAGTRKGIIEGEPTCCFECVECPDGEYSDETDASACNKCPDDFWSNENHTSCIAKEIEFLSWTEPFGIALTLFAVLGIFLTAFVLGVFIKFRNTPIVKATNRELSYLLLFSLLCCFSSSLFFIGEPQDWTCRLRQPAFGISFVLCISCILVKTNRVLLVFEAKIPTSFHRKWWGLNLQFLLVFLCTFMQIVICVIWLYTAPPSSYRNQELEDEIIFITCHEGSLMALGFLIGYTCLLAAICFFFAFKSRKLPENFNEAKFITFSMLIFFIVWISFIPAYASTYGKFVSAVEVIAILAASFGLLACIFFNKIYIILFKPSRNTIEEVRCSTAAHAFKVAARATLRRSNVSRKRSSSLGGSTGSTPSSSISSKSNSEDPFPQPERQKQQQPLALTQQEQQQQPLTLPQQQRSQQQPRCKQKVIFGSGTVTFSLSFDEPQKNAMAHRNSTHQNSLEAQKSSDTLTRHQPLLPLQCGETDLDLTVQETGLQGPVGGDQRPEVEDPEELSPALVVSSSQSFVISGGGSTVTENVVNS
Protocol: (§1) 293E Cells (EBNA1-expression HEK293 cells, ATCC No. CRL-10852) were cultivated in DMEM/Ham's-F12 (3.15/ml Glucose-containing Dulbecco's modified Eagle medium; available from NAKARAI TESK Company) containing 10% fetal calf serum in the presence of 200 μg/ml of G418 (available from Genetisine Company). The cultured cells were inoculated in F25 flask at a density of 3×10^6 cells/10 ml, then the content of the flask was allowed to stand for 24 hours in a CO2 incubator (5% CO2, 37° C.), and then the human CaSR-expression plasmid hCaSR/pcDNA3.1 was transfected using a transfection agent Fugene 6 (available from Roche Company). After allowing the flask to stand in a CO2 incubator for 6 to 7 hours, the cells were recovered using 10% fetal calf serum-containing DMEM/Ham's-F12 and then inoculated in each well of a poly-D-lysine coat 96-well plate (BD-Biocoat) at a density of 70,000 cells/well.
(§2) After allowing the well plate to stand in a CO2 incubator for 24 hours, the culture medium was removed from each well of the 96-well plate to which the cells had been inoculated, and a solution of Ca^2+ fluorescent indicator Calcium 4 Assay Kit (available from Molecular Devices Company) in an Assay Buffer (containing 146 mM of NaCl, 5 mM of KCl, 1 mM of MgSO4, 1 mg/ml of Glucose, 20 mM of HEPES (pH 7.2), and 0.75 to 1.25 mM of CaCl2) in an amount of 200 μl/well was added to each well, and each well was allowed to stand at 37° C. for one hour and then at room temperature for 10 minutes to thus make the cells take the indicator.
(§3) To each well of the 96-well plate, a solution of a test compound in a 0.1% BSA-containing Assay Buffer in an amount of 50 μl/well was added, and the wells were inspected for any change in the intensity of fluorescent light rays emitted therefrom for 3 minutes using FLEX Station (available from Molecular Devices Company).
(§4) Method for the Calculation of EC50
(§5) The difference (RFU (Max-Min) between the maximum and minimum intensities of fluorescent light rays observed before and after the addition of the test compound were calculated according to the automatic calculation by the FLEX Station. In this respect, the activity rate of a test compound was calculated, while the RFU (Max-Min) value observed when adding a test compound in a maximum concentration was defined to be 100% and the RFU (Max-Min) value observed when using a 0.1% BSA-containing Assay Buffer free of any added test compound was defined to be 0%, then the curve-fitting was carried out using a software Xfit for spreadsheet or a GraphPad Prism to thus determine each corresponding EC50 value as the concentration of each test compound observed at the activity rate of 50%.
as §1, with “plasmid:” for “plasmid”, “384-well” for “96-well”, “2×10^6” for “70,000”, “cells/well. […]” for “cells/well.”

human CaSR [2] = target: T2, human CaSR (Homo sapiens, UniProt P41180); test: as above; format: cell-based; conditions: ratio to γ-Glu-Cys
T2 construct: expressed in transfected cells; host or cells: 293E cells (EBNA1-expression HEK293 cells, ATCC No. CRL-10852), transient transfection of hCaSR/pcDNA3.1
T2 sequence (P41180 20-1078 E1011Q): T1 sequence (P41180 20-1078 E1011Q)
Protocol: as §1, §2, §3, §4, §5
as §1, with “plasmid:” for “plasmid”, “384-well” for “96-well”, “2×10^6” for “70,000”, “cells/well. […]” for “cells/well.”

panelists [3] = test: Quantitative organoleptic evaluation of kokumi-imparting activity in dried-bonito extract; format: in vivo, human; conditions: for Intensity of Kokumi After Taste / Intensity of Kokumi Initial-Middle Taste: score scale -5 to +5, n=5
Protocol: The pH value of the samples used was adjusted to that of the control free of any test compound (i.e., the pH value of the latter +0.2). […] The scoring was carried out using the linear-scale technique, in which each corresponding score was plotted on a straight line on which the scores equal to −5, 0 and +5 had been expressly specified. […] In this respect, the term “initial-middle taste” means the taste detected from 0 to 5 seconds after placing and maintaining each sample in each panelist's mouth, and the term “after taste” means that detected thereafter.

panelists [4] = test: Quantitative organoleptic evaluation of kokumi-imparting activity in umami/salty solution; format: in vivo, human; conditions: for Intensity of Kokumi After Taste / Intensity of Kokumi Initial-Middle Taste: score scale -5 to +5, n=5
Protocol: The scoring was carried out using the linear-scale technique, in which each corresponding score was plotted on a straight line on which the scores equal to −5, 0 and +5 had been expressly specified. In addition, persons selected as panelists in these evaluation tests were persons who had been engaged in the development of a seasoning over a cumulative period of at least a half year, and who could so judge that the difference between γ-Glu-Cys-Gly and γ-Glu-Val-Gly, each of which was added to a solution having umami and salty taste, was about 10 times (this ability was confirmed at regular intervals). In this respect, the term “initial-middle taste” means the taste detected from 0 to 5 seconds after placing and maintaining each sample in each panelist's mouth, and the term “after taste” means that detected thereafter.

panelists [5] = test: Quantitative organoleptic evaluation of kokumi-imparting activity in cow's milk; format: in vivo, human; conditions: for Intensity of Kokumi After Taste / Intensity of Kokumi Initial-Middle Taste: score scale -5 to +5, n=5
Protocol: The quantitative organoleptic evaluation test was carried out according to the following procedures: The intensity of the kokumi-imparting activity of the test compound was determined using a mixture obtained by adding, to the commercially available cow's milk (fat content: 3.6%), […] The pH value of the samples used was adjusted to that of the control free of any test compound (i.e., the pH value of the latter +0.2). […] The scoring was carried out using the linear-scale technique, in which each corresponding score was plotted on a straight line on which the scores equal to −5, 0 and +5 had been expressly specified. […] In this respect, the term “initial-middle taste” means the taste detected during the term ranging from 0 to 5 seconds after keeping each sample in each panelist's mouth and the term “after taste” means that detected thereafter.

[6] = 0.0001 g/dL in dried bonito extract 20.0 g/dL with common salt 0.5 g/dL
[7] = 0.0005 g/dL in dried bonito extract 20.0 g/dL with common salt 0.5 g/dL
[8] = 0.0001 g/dL in water with MSG 0.05, IMP 0.05, NaCl 0.5 g/dL
[9] = 0.0005 g/dL in water with MSG 0.05, IMP 0.05, NaCl 0.5 g/dL
[10] = 0.0001 g/dL in cow's milk (fat content 3.6%)
[11] = 0.0005 g/dL in cow's milk (fat content 3.6%)
[12] = 0.01 g/dL, reference standard for the scoring
[13] = 0.001 g/dL in dried bonito extract 20.0 g/dL with common salt 0.5 g/dL
[14] = 0.001 g/dL in water with MSG 0.05, IMP 0.05, NaCl 0.5 g/dL
[15] = 0.001 g/dL in cow's milk (fat content 3.6%)

N[C@@H](CCC(=O)N[C@H]1CSC[C@@H](C(=O)O)NC1=O)C(=O)O [Compound 8b]
EC50 (human CaSR [1]): 53 nM | CaSR agonist activity relative to that of γ-Glu-Cys (human CaSR [2]): about 9 times | Intensity of Kokumi After Taste (panelists [3]; [6]): 2.5 | Intensity of Kokumi Initial-Middle Taste (panelists [3]; [6]): 2.3 | kokumi-imparting activity (in words) (panelists [3]; 0.0001 to 0.0005 g/dL in dried bonito extract solution): showed its kokumi-imparting activity over the wide range of the foregoing added concentrations | Intensity of Kokumi After Taste (panelists [3]; [7]): 3.7 | Intensity of Kokumi Initial-Middle Taste (panelists [3]; [7]): 3.5 | Intensity of Kokumi After Taste (panelists [4]; [8]): 2.4 | Intensity of Kokumi Initial-Middle Taste (panelists [4]; [8]): 2.3 | kokumi-imparting activity (in words) (panelists [4]; 0.0001 to 0.0005 g/dL in water with MSG, IMP, NaCl): showed its kokumi-imparting activity over the wide range of the foregoing added concentrations | Intensity of Kokumi After Taste (panelists [4]; [9]): 3.5 | Intensity of Kokumi Initial-Middle Taste (panelists [4]; [9]): 3.4 | Intensity of Kokumi After Taste (panelists [5]; [10]): 2.3 | Intensity of Kokumi Initial-Middle Taste (panelists [5]; [10]): 2.4 | kokumi-imparting activity (in words) (panelists [5]; 0.0001 to 0.0005 g/dL in cow's milk): showed its kokumi-imparting activity over the wide range of the foregoing added concentrations | Intensity of Kokumi After Taste (panelists [5]; [11]): 3.5 | Intensity of Kokumi Initial-Middle Taste (panelists [5]; [11]): 3.5

N[C@@H](CCC(=O)N[C@H]1CSCCC(C(=O)O)NC1=O)C(=O)O (stereo partly drawn) [Compound 21]
EC50 (human CaSR [1]): 1850 nM

N[C@@H](CCC(=O)NC1CCCC(C(=O)O)NC1=O)C(=O)O (stereo partly drawn) [Compound 35]
EC50 (human CaSR [1]): 199 nM

N[C@@H](CCC(=O)N[C@@H](CS)C(=O)NCC(=O)O)C(=O)O [γ-Glu-Cys-Gly, reference compound]
intensity of the kokumi, after taste (panelists [3]; [12]): 3.0 | intensity of the kokumi, initial-middle taste (panelists [3]; [12]): 3.0 | intensity of the kokumi, after taste (panelists [4]; [12]): 3.0 | intensity of the kokumi, initial-middle taste (panelists [4]; [12]): 3.0 | intensity of the kokumi, after taste (panelists [5]; [12]): 3.0 | intensity of the kokumi, initial-middle taste (panelists [5]; [12]): 3.0

CC(C)[C@H](NC(=O)CC[C@H](N)C(=O)O)C(=O)NCC(=O)O [γ-Glu-Val-Gly, reference compound]
Intensity of Kokumi After Taste (panelists [3]; [13]): 3.0 | Intensity of Kokumi Initial-Middle Taste (panelists [3]; [13]): 2.5 | Comments for the Evaluation (panelists [3]; 0.001 g/dL in dried bonito extract solution): The fish meat taste of the dried | Intensity of Kokumi After Taste (panelists [4]; [14]): 3.0 | Intensity of Kokumi Initial-Middle Taste (panelists [4]; [14]): 2.5 | Comments for the Evaluation (panelists [4]; 0.001 g/dL in water with MSG, IMP, NaCl): The kokumi is strengthened mainly | Comments for the Evaluation (panelists [5]; 0.001 g/dL in cow's milk): The thickness feeling of the cow's | Intensity of Kokumi After Taste (panelists [5]; [15]): 3.0 | Intensity of Kokumi Initial-Middle Taste (panelists [5]; [15]): 2.5

N[C@@H](CCC(=O)N[C@@H]1CSC[C@@H](C(=O)O)NC1=O)C(=O)O [Compound 8c]
EC50 (human CaSR [1]): 20000 nM

N[C@@H](CCC(=O)N[C@@H](CS)C(=O)O)C(=O)O [γ-Glu-Cys, reference compound]
EC50 (human CaSR [1]): 460 nM

N[C@@H](CCC(=O)N[C@H]1CSC[C@H](C(=O)O)NC1=O)C(=O)O [Compound 8a]
EC50 (human CaSR [1]): 14300 nM

N[C@@H](CCC(=O)N[C@@H]1CSC[C@H](C(=O)O)NC1=O)C(=O)O [Compound 8d]
EC50 (human CaSR [1]): 1950 nM

C[C@@H]1SC[C@H](NC(=O)CC[C@H](N)C(=O)O)C(=O)N[C@@H]1C(=O)O [Compound 29]
EC50 (human CaSR [1]): 580 nM
